Data taken from article doi:10.1101/139675v1, “Purification of the mammalian NgBR/hCIT cis-prenyltransferase complex: Identification of a conserved carboxyterminal RxG motif crucial for enzymatic activity” (biorxiv, 2017).

Target: T1, NgBR/hCIT complex (hcisPT) (Homo sapiens, UniProt Q86SQ9+Q96E22)
T1 construct: gene DHDDS; full-length; N-terminal Strep-tag on hCIT, internal 6-His tag after Gly31 of NgBR; bicistronic vector in Expi293F
T1 sequence (Q86SQ9 1-333): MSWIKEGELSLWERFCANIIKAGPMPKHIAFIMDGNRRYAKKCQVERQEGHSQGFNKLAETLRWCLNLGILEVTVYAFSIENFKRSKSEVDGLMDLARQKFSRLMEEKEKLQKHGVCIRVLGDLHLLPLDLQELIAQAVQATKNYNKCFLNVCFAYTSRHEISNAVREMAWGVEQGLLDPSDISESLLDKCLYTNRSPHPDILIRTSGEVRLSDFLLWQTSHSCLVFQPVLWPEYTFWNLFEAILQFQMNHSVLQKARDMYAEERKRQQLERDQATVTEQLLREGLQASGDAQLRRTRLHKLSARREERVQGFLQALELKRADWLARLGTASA
T1 sequence (Q96E22 1-293): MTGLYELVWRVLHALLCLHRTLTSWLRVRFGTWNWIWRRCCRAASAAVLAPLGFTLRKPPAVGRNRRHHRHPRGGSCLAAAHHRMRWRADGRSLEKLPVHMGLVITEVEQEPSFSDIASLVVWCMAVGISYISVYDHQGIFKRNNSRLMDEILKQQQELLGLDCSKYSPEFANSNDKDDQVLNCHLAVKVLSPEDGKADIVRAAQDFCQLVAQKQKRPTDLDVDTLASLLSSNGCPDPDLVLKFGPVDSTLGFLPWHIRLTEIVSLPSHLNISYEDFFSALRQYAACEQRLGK
Assay: […]-IPP incorporation, Michaelis-Menten fit
Type: biochemical
Conditions: 50 mM Tris-HCl pH 8, 1 mM MgCl2, 1% phosphatidylinositol, 37 C

Row | Compound | Km (100 uM IPP, 0.1-50 uM FPP) | Km (50 uM FPP, 0.1-400 uM IPP, labelled compound)
1 | CC(C)=CCC/C(C)=C/CC/C(C)=C/COP(=O)(O)OP(=O)(O)O [FPP] | steady state kinetic parameters were measured for complexes containing the WT subunits, hCIT/NgBR | 
2 | C=C(C)CCOP(=O)(O)OP(=O)(O)O [IPP] |  | steady state kinetic parameters were measured for complexes containing the WT subunits, hCIT/NgBR
